Measurements: the NIST ThermoML archive (doi:10.1016/j.fluid.2016.11.010)

Legend:
[1] = for vapor or sublimation pressure: Liquid, Transpiration method
[2] = Molar enthalpy of transition or fusion; settings: Crystal; DSC

Brc1ccc(-n2ccnc2)cc1 [4-bromo-phenyl-1H-imidazole]
[1]
Settings | vapor or sublimation pressure [kPa]
343.3 K | 0.00037
348.1 K | 0.00065
353 K | 0.00103
358.2 K | 0.00174
363.2 K | 0.00273
368.2 K | 0.00467
374.1 K | 0.00773

Settings | Normal melting temperature [°C]
[1], Crystal, DTA | 120.1

Settings | Molar enthalpy of transition or fusion [kcal/mol]
[2] | 6.84

Fc1ccc(-n2ccnc2)cc1 [4-fluoro-phenyl-1H-imidazole]
[1]
Settings | vapor or sublimation pressure [kPa]
313 K | 0.00108
318.4 K | 0.00166
323.3 K | 0.00268
328.2 K | 0.00401
333.2 K | 0.00563
335.7 K | 0.00702
338.2 K | 0.00834
340.7 K | 0.01004
343.2 K | 0.01191
345.6 K | 0.01481
348.2 K | 0.01727
353.1 K | 0.02449
358.2 K | 0.03573
363.2 K | 0.04969
368.1 K | 0.06685
373.1 K | 0.09256

COc1ccccc1-n1ccnc1 [2-methoxy-phenyl-1H-imidazole]
[1]
Settings | vapor or sublimation pressure [kPa]
333.2 K | 0.00084
338.3 K | 0.00128
343.1 K | 0.00192
348.1 K | 0.00293
353 K | 0.00409
358 K | 0.00591
362.9 K | 0.00864
367.9 K | 0.01198
374.2 K | 0.01855

Brc1ccccc1-n1ccnc1 [2-bromo-phenyl-1H-imidazole]
[1]
Settings | vapor or sublimation pressure [kPa]
343.2 K | 0.00369
348.2 K | 0.00534
353.2 K | 0.00754
358.1 K | 0.01128
363.1 K | 0.01573
368 K | 0.0218
374 K | 0.03122

Cc1ccc(-n2ccnc2)cc1 [4-methyl-phenyl-1H-imidazole]
[1]
Settings | vapor or sublimation pressure [kPa]
328.3 K | 0.00266
333 K | 0.00399
338.1 K | 0.00603
340.8 K | 0.00739
345.7 K | 0.01103
350.7 K | 0.01582
355.7 K | 0.02204
360.7 K | 0.0313
365.6 K | 0.04264
370.6 K | 0.0608
375.3 K | 0.07866

c1ccc(-n2ccnc2)cc1 [1-phenylimidazole]
[1]
Settings | vapor or sublimation pressure [kPa]
298.7 K | 0.00041
308.6 K | 0.00105
313.5 K | 0.00158
318.4 K | 0.00254
319.1 K | 0.00269
323.5 K | 0.00393
328.5 K | 0.00594
333.7 K | 0.00902
338.4 K | 0.01334
343.2 K | 0.01799
348.2 K | 0.02552
353.1 K | 0.03567

Cc1ccccc1-n1ccnc1 [1-(o-tolyl)-1H-imidazole]
[1]
Settings | vapor or sublimation pressure [kPa]
313.3 K | 0.00112
318.2 K | 0.00165
323.2 K | 0.00266
328.2 K | 0.00389
333.2 K | 0.00587
338.1 K | 0.00828
343.1 K | 0.01155
348.1 K | 0.01711
353.1 K | 0.02295
358 K | 0.03338
363 K | 0.04638

Fc1ccccc1-n1ccnc1 [2-fluoro-phenyl-1H-imidazole]
[1]
Settings | vapor or sublimation pressure [kPa]
323.2 K | 0.0041
328.2 K | 0.00615
333.2 K | 0.00892
338.1 K | 0.01364
343.1 K | 0.01948
348.1 K | 0.02761
353.1 K | 0.03781
358.1 K | 0.05311
363 K | 0.0745
367.9 K | 0.09597

COc1ccc(-n2ccnc2)cc1 [4-methoxy-phenyl-1H-imidazole]
[1]
Settings | vapor or sublimation pressure [kPa]
333.4 K | 0.00061
338.2 K | 0.00094
343.3 K | 0.00147
348.2 K | 0.00215
353.3 K | 0.00328
358.3 K | 0.00469
363.3 K | 0.00695
368.2 K | 0.00969
373.2 K | 0.01433
